Reference: patent publication US8992444B2, “Devices, systems, and methods for determining isometric and isotonic activity of luminal organs” (DTherapeutics, LLC, priority 2005, dated 2015)

Experiments:
[1] = system: carotid and femoral arteries; test: isovolumic myograph, vasoactivity of arterial segments; parameters: species or system Wistar rats; conditions: concentration-dependent contraction, FIG. 2
Experimental: Six Wistar rats weighing 300-350 g were used in the study. The animals were anesthetized with sodium pentobarbital (60 mg/kg, ip). A heating pad was used to maintain the body temperature of the animal during anesthesia. The left carotid and common femoral arteries of the rat were exposed and cannulated for blood pressure measurements. This was done to measure the in vivo difference in blood pressure between carotid and femoral arteries. Several 1 cm segments of right carotid and femoral arteries were excised and immediately stored in 4° C. physiological saline solution (PSS).
The samples were then prepared to be tested in the exemplary isovolumic myograph according to the present disclosure as shown in FIG. 1. To prepare the samples, PSS was first contained in an organ bath with a controlled heating system and warmed to 37° C. […]
Vessel 3 and pressure transducer 5 are isolated from the pressure system when vessel 3 is pressurized and the two stopcocks 6 and 7 are closed to vessel 3. […] The changes of the pressure are recorded. […]
The dosage-dependent vasoconstriction in response to phenylephrine was recorded. The dosage- and endothelium-dependent vasodilatation in response to acetylcholine was also recorded in phenylephrine pre-constriction. The dosage-dependent and endothelium-independent vasodilatation in response to sodium nitroprusside (SNP) was recorded in phenylephrine pre-constriction. […]

[2] = system: aorta, femoral artery, and mesenteric artery; test: isovolumic myography, dose-dependent vasoconstriction and vasodilatation; parameters: species or system Wistar male rats; conditions: 10^−5 mole/l; three types of arteries at physiological pressure
Experimental: Animals and tissue preparation. […] Six aorta, six femoral arteries, and six mesenteric arteries were harvested from eighteen rats. The animals were acclimated to the testing facility for approximately one week prior to the start of the study. On the day of termination, each animal was first anesthetized with sodium pentobarbital (80 mg/kg, i.p.) and euthanized by overanesthesia with sodium pentobarbital ([…], i.p.). Either the aorta, common femoral artery, or mesenteric artery were excised quickly and placed in ice-cold physiological saline solution (PSS in mmole/L: 119 NaCl, 4.7 KCl, 25 NaHCO3, 1.17 KH2PO4, 1.17 MgSO4, 1.6 CaCl, 5.5 Dextrose, solution gassed by 95% O2/5% CO2). The artery was carefully cleaned from adjacent tissue with the aid of a stereo-dissection microscope. The branches on the artery were ligated and the artery was allowed to warm up to room temperature (22° C.) slowly in approximately 10-15 min. The artery was transferred to the chamber of isovolumic system and cannulated with connectors and secured with 8-0 suture twice to avoid any leakage. The artery was warmed up to 37° C. slowly (20-25 min) and equilibrated for 40 min at a transmural pressure of 15 mmHg before agonist and antagonist stimulation.
Isovolumic myography. […]

CNC[C@H](O)c1cccc(O)c1 [phenylephrine]
concentration at which the pressure in the vessel reached a maximum [1]: 3 µmol/L
increase in intraluminal pressure [2]: 30 to 40 mmHg
